Laboratory results: ChEMBL document CHEMBL1165855, “Guaiane sesquiterpenes from seaweed Ulva fasciata Delile and their antibacterial properties” (2010)
Converted amounts (≈) assume the structure as drawn.

Assays:
Format in all cases: functional
Vibrio harveyi [1] = assay: Antibacterial activity against Vibrio harveyi MTCC 3438 at 50 ug/ml after 24 hrs by disc-diffusion assay; settings: MTCC 3438, 24 h, read-out: DIZ
Vibrio vulnificus [2] = assay: Antibacterial activity against Vibrio vulnificus MTCC 1145 at 50 ug/ml after 24 hrs by disc-diffusion assay; settings: MTCC 1145, 24 h, read-out: DIZ
Vibrio harveyi [3] = assay: Antibacterial activity against Vibrio harveyi MTCC 3438 at 100 ug/ml after 24 hrs by disc-diffusion assay; settings: MTCC 3438, 24 h, read-out: DIZ
Vibrio vulnificus [4] = assay: Antibacterial activity against Vibrio vulnificus MTCC 1145 after 24 hrs by broth microdilution assay; settings: MTCC 1145, 24 h
Vibrio vulnificus [5] = assay: Antibacterial activity against Vibrio vulnificus MTCC 1145 at 150 ug/ml after 24 hrs by disc-diffusion assay; settings: MTCC 1145, 24 h, read-out: DIZ
Vibrio parahaemolyticus [6] = assay: Antibacterial activity against Vibrio parahaemolyticus ATCC 17809 after 24 hrs by broth microdilution assay; settings: ATCC 17809, 24 h
Vibrio vulnificus [7] = assay: Antibacterial activity against Vibrio vulnificus MTCC 1145 at 100 ug/ml after 24 hrs by disc-diffusion assay; settings: MTCC 1145, 24 h, read-out: DIZ
Vibrio parahaemolyticus [8] = assay: Antibacterial activity against Vibrio parahaemolyticus ATCC 17809 at 150 ug/ml after 24 hrs by disc-diffusion assay; settings: ATCC 17809, 24 h, read-out: DIZ
Vibrio parahaemolyticus [9] = assay: Antibacterial activity against Vibrio parahaemolyticus ATCC 17809 at 50 ug/ml after 24 hrs by disc-diffusion assay; settings: ATCC 17809, 24 h, read-out: DIZ
Vibrio harveyi [10] = assay: Antibacterial activity against Vibrio harveyi MTCC 3438 after 24 hrs by broth microdilution assay; settings: MTCC 3438, 24 h
Vibrio harveyi [11] = assay: Antibacterial activity against Vibrio harveyi MTCC 3438 at 150 ug/ml after 24 hrs by disc-diffusion assay; settings: MTCC 3438, 24 h, read-out: DIZ
Vibrio parahaemolyticus [12] = assay: Antibacterial activity against Vibrio parahaemolyticus ATCC 17809 at 100 ug/ml after 24 hrs by disc-diffusion assay; settings: ATCC 17809, 24 h, read-out: DIZ

| MIC (Vibrio vulnificus [4]) [µg/mL] | MIC (Vibrio harveyi [10]) [µg/mL] | Compound | zone of inhibition at 50 µg/mL (Vibrio harveyi [1]) [mm] | zone of inhibition at 50 µg/mL (Vibrio vulnificus [2]) [mm] | zone of inhibition at 100 µg/mL (Vibrio harveyi [3]) [mm] | zone of inhibition at 150 µg/mL (Vibrio vulnificus [5]) [mm] | MIC (Vibrio parahaemolyticus [6]) [µg/mL] | zone of inhibition at 100 µg/mL (Vibrio vulnificus [7]) [mm] | zone of inhibition at 150 µg/mL (Vibrio parahaemolyticus [8]) [mm] | zone of inhibition at 50 µg/mL (Vibrio parahaemolyticus [9]) [mm] | zone of inhibition at 150 µg/mL (Vibrio harveyi [11]) [mm] | zone of inhibition at 100 µg/mL (Vibrio parahaemolyticus [12]) [mm] |
| --- | --- | --- | --- | --- | --- | --- | --- | --- | --- | --- | --- | --- |
| 125 (≈ 562 µM) | 160 (≈ 720 µM) | CC(C)[C@H]1CCC[C@@](C)(O)[C@H]2C=C[C@H](C)[C@@H]12 | 6.54 | 7.15 | 6.58 | 7.85 | 110 (≈ 495 µM) | 7.3 | 7.28 | 6.83 | 6.6 | 6.92 |
| 40 (≈ 180 µM) | 50 (≈ 225 µM) | CC[C@H]1CCC[C@@](C)(CO)[C@H]2C=C[C@H](C)[C@@H]12 | 10.6 | 11.7 | 11.7 | 12.4 | 35 (≈ 157 µM) | 12 | 13.2 | 12.7 | 12.9 | 12.9 |
| 25 (≈ 94.6 µM) | 30 (≈ 113 µM) | CC[C@H]1CCC[C@@](C)(COC(C)=O)[C@H]2C=C[C@H](C)[C@@H]12 | 11.7 | 14.1 | 12.3 | 15.1 | 25 (≈ 94.6 µM) | 14.9 | 16.6 | 15.3 | 12.6 | 15.8 |
